The values that follow come from ChEMBL document CHEMBL4725342, “Design, synthesis and structure-activity relationship study of piperazinone-containing thieno[3,2-d]pyrimidine derivatives as new PI3Kδ inhibitors” (Bioorg Med Chem Lett, 2020).

The target of test [1] is T1, Phosphatidylinositol 4,5-bisphosphate 3-kinase catalytic subunit delta isoform (Homo sapiens, UniProt O00329).
T1 sequence (O00329 whole entry): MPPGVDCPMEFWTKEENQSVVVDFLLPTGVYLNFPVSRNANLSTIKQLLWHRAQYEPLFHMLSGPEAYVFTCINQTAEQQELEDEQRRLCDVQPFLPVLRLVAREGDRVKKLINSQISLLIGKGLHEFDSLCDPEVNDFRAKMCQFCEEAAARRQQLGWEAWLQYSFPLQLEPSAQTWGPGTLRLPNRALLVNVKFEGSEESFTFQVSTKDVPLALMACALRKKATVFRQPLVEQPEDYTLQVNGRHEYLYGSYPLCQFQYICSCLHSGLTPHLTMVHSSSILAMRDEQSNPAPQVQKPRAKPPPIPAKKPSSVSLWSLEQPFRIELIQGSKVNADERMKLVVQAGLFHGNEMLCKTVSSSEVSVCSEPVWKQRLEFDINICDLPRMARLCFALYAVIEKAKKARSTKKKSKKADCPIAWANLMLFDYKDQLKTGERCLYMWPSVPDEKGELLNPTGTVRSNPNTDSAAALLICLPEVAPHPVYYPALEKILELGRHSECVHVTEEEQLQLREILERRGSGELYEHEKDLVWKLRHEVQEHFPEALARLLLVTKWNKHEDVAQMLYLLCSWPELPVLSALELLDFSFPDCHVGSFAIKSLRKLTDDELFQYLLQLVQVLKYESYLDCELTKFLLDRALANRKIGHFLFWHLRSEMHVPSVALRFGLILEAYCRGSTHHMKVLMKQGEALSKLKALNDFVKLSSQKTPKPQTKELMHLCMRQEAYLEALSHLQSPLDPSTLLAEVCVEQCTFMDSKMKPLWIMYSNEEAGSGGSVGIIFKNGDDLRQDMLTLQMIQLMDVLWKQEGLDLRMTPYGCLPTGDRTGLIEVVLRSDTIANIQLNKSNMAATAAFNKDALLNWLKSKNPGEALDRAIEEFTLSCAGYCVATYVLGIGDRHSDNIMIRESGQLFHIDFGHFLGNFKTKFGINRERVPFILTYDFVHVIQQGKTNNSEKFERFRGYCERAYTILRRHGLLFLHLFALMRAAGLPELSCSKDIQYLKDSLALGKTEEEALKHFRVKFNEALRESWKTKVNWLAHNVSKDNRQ
Nature of the test: Inhibition of PI3Kdelta (unknown origin).

The target of test [2] is Phosphatidylinositol 4,5-bisphosphate 3-kinase catalytic subunit alpha isoform (Homo sapiens, UniProt P42336). The test can be described thus: Inhibition of PI3Kalpha (unknown origin).
Phosphatidylinositol 4,5-bisphosphate 3-kinase catalytic subunit alpha isoform, sequence (P42336 whole entry, canonical isoform): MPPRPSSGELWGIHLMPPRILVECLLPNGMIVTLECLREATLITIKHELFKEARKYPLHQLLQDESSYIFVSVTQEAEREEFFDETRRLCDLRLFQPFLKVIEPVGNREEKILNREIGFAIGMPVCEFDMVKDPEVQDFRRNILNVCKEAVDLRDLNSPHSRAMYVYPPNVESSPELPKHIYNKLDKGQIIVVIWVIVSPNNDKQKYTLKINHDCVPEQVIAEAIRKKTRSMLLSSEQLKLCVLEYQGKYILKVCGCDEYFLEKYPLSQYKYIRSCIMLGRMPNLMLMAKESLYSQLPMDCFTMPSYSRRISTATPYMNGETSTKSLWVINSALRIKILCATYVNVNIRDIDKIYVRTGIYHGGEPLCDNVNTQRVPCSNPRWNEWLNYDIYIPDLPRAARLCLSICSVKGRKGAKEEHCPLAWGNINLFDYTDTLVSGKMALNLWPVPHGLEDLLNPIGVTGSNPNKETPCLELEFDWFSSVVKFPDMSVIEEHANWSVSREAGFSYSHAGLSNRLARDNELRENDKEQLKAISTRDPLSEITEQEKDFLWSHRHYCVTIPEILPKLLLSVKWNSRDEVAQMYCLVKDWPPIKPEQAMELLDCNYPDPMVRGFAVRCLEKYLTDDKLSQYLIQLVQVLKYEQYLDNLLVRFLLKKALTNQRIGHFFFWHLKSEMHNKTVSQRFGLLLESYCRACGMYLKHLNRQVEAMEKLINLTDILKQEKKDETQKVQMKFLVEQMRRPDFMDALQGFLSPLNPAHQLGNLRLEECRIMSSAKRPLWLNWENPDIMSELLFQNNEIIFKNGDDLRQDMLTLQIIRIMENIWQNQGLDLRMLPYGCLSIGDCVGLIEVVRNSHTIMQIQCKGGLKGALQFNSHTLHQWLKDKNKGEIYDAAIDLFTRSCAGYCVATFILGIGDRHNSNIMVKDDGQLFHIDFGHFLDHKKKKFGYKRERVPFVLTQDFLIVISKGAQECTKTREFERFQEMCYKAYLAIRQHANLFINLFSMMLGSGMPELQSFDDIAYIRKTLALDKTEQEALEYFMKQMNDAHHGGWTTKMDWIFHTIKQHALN
The target of test [3] is Phosphatidylinositol 4,5-bisphosphate 3-kinase catalytic subunit beta isoform (Homo sapiens, UniProt P42338). The test can be described thus: Inhibition of PI3Kbeta (unknown origin).
Phosphatidylinositol 4,5-bisphosphate 3-kinase catalytic subunit beta isoform, sequence (P42338 whole entry, canonical isoform): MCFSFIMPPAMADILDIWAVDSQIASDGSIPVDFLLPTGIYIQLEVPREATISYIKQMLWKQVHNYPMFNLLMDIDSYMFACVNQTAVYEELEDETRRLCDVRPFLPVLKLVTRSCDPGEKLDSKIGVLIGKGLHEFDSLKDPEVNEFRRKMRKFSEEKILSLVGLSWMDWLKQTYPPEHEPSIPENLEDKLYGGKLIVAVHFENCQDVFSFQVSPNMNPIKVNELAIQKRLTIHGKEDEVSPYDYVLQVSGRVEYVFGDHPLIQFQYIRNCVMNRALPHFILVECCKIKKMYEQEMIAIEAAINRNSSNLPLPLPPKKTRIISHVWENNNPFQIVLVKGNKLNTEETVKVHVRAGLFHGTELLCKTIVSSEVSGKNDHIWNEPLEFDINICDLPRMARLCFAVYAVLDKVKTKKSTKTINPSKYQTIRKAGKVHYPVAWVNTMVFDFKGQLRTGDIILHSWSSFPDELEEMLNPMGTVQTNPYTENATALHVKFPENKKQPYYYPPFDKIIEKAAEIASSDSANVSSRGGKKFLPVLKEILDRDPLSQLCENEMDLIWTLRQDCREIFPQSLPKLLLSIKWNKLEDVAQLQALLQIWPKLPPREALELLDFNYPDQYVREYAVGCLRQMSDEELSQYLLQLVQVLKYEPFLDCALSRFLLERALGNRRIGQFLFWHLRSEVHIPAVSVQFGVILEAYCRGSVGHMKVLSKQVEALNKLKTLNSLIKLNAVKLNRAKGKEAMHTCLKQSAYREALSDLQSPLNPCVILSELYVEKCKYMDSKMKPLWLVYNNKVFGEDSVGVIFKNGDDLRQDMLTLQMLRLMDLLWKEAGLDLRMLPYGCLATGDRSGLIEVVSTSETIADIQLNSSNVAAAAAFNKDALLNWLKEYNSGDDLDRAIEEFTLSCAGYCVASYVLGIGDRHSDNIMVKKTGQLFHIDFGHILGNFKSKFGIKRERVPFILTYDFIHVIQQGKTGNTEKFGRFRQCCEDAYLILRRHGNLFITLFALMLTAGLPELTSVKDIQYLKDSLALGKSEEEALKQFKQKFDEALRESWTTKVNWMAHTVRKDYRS
In test [4] the target is Phosphatidylinositol 4,5-bisphosphate 3-kinase catalytic subunit gamma isoform (Homo sapiens, UniProt P48736). Nature of the test: Inhibition of PI3Kgamma (unknown origin).
Phosphatidylinositol 4,5-bisphosphate 3-kinase catalytic subunit gamma isoform, sequence (P48736 whole entry, canonical isoform): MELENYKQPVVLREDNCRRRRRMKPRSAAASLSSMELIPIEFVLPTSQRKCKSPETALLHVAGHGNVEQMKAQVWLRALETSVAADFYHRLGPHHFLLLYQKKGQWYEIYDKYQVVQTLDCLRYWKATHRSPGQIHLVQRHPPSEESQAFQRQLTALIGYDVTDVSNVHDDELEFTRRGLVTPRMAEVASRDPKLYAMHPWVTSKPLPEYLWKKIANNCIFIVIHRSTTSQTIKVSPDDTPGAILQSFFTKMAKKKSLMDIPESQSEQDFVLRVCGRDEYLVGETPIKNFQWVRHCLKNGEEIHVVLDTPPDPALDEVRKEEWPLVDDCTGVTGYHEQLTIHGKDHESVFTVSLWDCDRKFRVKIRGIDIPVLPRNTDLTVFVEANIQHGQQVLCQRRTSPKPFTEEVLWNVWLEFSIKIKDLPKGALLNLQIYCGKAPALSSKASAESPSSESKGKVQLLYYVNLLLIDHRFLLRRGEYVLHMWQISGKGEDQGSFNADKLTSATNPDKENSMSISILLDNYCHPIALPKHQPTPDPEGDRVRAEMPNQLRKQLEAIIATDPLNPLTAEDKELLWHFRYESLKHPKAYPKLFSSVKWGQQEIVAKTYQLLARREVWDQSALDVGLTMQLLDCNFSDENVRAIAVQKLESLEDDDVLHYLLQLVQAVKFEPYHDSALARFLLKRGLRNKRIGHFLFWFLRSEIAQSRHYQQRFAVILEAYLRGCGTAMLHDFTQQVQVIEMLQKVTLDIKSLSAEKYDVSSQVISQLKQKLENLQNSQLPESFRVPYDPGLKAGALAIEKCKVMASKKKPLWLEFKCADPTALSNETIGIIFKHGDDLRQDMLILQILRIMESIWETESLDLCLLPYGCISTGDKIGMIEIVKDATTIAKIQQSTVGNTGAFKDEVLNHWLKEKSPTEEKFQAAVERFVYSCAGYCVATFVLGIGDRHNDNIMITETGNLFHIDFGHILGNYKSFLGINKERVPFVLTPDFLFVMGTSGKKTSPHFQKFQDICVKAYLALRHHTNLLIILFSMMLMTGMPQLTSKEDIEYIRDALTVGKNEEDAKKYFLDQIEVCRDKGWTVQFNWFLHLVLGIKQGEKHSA
Another test concerns OCI-Ly3. Nature of the test: Antiproliferative activity against human OCILY3 assessed as reduction in cell growth by MTS assay. Type of test: functional, cell-based.
The test system of another test is OCI-Ly10. The test can be described thus: Antiproliferative activity against human OCILY10 assessed as reduction in cell growth by MTS assay. Format: functional, cell-based.
In the next test the test system is SU-DHL-6. Nature of the test: Antiproliferative activity against human SU-DHL-6 assessed as reduction in cell growth by MTS assay. Type of test: functional, cell-based. (In general: Formazan colour is commonly taken as a measure of viable cells.)
A further test has as its system JeKo-1. The test can be described thus: Antiproliferative activity against human JeKo-1 assessed as reduction in cell growth by MTS assay. Format: functional, cell-based.
The test system of another test is Vero. Nature of the test: Cytotoxicity against monkey Vero cells assessed as reduction in cell viability by MTS assay. Type of test: cell-based. Particulars: Chlorocebus sabaeus.
A further test concerns L02. Nature of the test: Cytotoxicity against human L02 cells assessed as reduction in cell viability by MTS assay. Type of test: cell-based.
The subject of another test is HEK293. The test can be described thus: Cytotoxicity against human HEK293 cells assessed as reduction in cell viability by MTS assay. Type of test: cell-based.

The term IC50 denotes the concentration that gives 50% inhibition. On to `CCc1nc2ccccc2n1-c1nc(N2CCOCC2)c2sc(CN3CCN(C(=O)C4CCC4)CC3=O)cc2n1`, for which the IC50 is 1.4 nM in [1]; 117 nM in [2]; 165 nM in test [3]; 303 nM in test [4]; 1500 nM in the test with OCI-Ly3; > 10000 nM in the test with OCI-Ly10. For the same compound, the IC50 was 80 nM in the test with SU-DHL-6; 120 nM in the test with JeKo-1; > 20000 nM in the test on Vero; > 20000 nM with L02; > 20000 nM in the test on HEK293.

Regarding `C=CCN1CCN(Cc2cc3nc(-n4c(CC)nc5ccccc54)nc(N4CCOCC4)c3s2)C(=O)C1`, the IC50 is 1.6 nM in [1]; 295 nM in test [2]; 232 nM in test [3]; 266 nM in test [4]; 8600 nM in the test with OCI-Ly3; > 10000 nM in the test with OCI-Ly10. Moreover, the IC50 in the test with SU-DHL-6 is 570 nM; in the test on JeKo-1, 470 nM; in the test on Vero it was > 20000 nM; in the test with L02, > 20000 nM; with HEK293 it was > 20000 nM.

Turning to `CCc1nc2ccccc2n1-c1nc(N2CCOCC2)c2sc(CN3CCN(C(=O)C4CC4)CC3=O)cc2n1`, the IC50 came to 1.1 nM in test [1]; 84 nM in test [2]; 137 nM in test [3]; 185 nM in [4]; 2200 nM in the test with OCI-Ly3; 7600 nM in the test on OCI-Ly10. The IC50 with SU-DHL-6 was 100 nM; with JeKo-1, 190 nM; in the test on Vero, > 20000 nM; in the test with L02 it was > 20000 nM; in the test on HEK293, > 20000 nM.

Regarding `CCc1nc2ccccc2n1-c1nc(N2CCOCC2)c2sc(CN3CCN(C4CCCC4)C(=O)C3)cc2n1`, the IC50 in test [1] was 2.1 nM; in test [2], 250 nM; in test [3], > 500 nM; in test [4] it was > 500 nM; in the test with OCI-Ly3, 2800 nM; with OCI-Ly10, > 10000 nM. The half-inhibitory concentration (IC50) was 180 nM with SU-DHL-6; 170 nM with JeKo-1; > 20000 nM with Vero; > 20000 nM with L02; > 20000 nM in the test with HEK293.

For `CC[C@H](Nc1ncnc2[nH]cnc12)c1nc2cccc(F)c2c(=O)n1-c1ccccc1` [IDELALISIB], the IC50 with OCI-Ly3 was 5200 nM; in the test on OCI-Ly10 it was > 10000 nM; with SU-DHL-6, 120 nM; with JeKo-1 it was 120 nM; in the test with Vero, > 20000 nM; in the test on L02, > 20000 nM. For the same compound, in the test with HEK293, the IC50 was > 20000 nM.

As to `CCc1nc2ccccc2n1-c1nc(N2CCOCC2)c2sc(CN3CCN(C4CCCC4)CC3=O)cc2n1`, the IC50 is 2.9 nM in test [1]; 243 nM in test [2]; > 500 nM in [3]; 370 nM in [4]; 6900 nM in the test on OCI-Ly3; > 10000 nM in the test with OCI-Ly10. For the same compound, the IC50 with SU-DHL-6 is 530 nM; in the test on JeKo-1, 560 nM; in the test with Vero, > 20000 nM; with L02 it was > 20000 nM; with HEK293, > 20000 nM.
